Where “and” joins values, the source holds several entries; their conditions need not be identical. Equal values may be shown once.
How the values were obtained:
[1] = Destruction of DMSP by heating (GC-FID); format: physicochemical
Experimental: The concentration of DMSP in 1 ml-samples of heated or boiled 200 μM DMSP and in heated and untreated P. piscicida homogenates was measured using gas chromatography with flame ionization detection, as previously described.
Destruction of 200 μM DMSP in CB was assessed after heating the samples to either 80 or 100° C. for 15 min. At both temperatures, negligible (<2%) loss of DMSP was observed.
An alternative explanation for why heat reduced the chemoattractant quality of the homogenates is that heat acts indirectly through an intermediate to inactivate DMSP. This hypothesis predicts that the concentration of DMSP decreases when a homogenate is heated. The DMSP concentration in untreated and heated homogenates was measured. In untreated P. piscicida homogenates the mean concentration of DMSP was 8.21±1.2 μM. After the homogenate was heated, the concentration of DMSP fell below the level of detectability (<1 μM).

[2] = test system: Silicibacter sp. strain TM1040; experiment: Capillary assay: reduction in chemotaxis toward P. piscicida homogenates by externally supplied attractant; format: cell-based; conditions: for % Reduction in CFU per capillary compared to the control / No. of bacteria per capillary (CFU · 10^4), attractant added to external buffer: 200 μM attractant in external buffer; for No. of bacteria per capillary (CFU · 10^4), attractant added to external buffer: SD in parentheses; for mean number of bacteria in the untreated capillaries: untreated homogenate, attractant supplied externally in the buffer
Experimental: The capillary assay was also used to measure the reduction in chemotaxis through competition when a known attractant was supplied exogenously (i.e., outside the capillary). In this variation, the quantitative capillary method was used, but a known attractant was included in the CB used to suspend the washed cells. A capillary containing a mixture of potential chemoattractant molecules was then placed in the chamber and incubated as described earlier. At the completion of the assay, the percent reduction in chemotaxis was calculated using the following formula: % reduction=[1−(CFU ml^−1exogenous/CFU ml^−1control)]×(100).
Dinoflagellates and Rhodomonas sp. were grown to late exponential phase (ca. 10^5 to 10^6 cells per ml), and the cell density was measured using a Coulter Counter (model M/SZRII; Beckman Coulter). Dinoflagellates were harvested after starvation of the culture to remove Rhodomonas prey algae, which was confirmed by microscopy. The cell densities in P. piscicida and Rhodomonas cultures were normalized to 10^5 cells per ml, and each culture was then pelleted by centrifugation at 4,000×g and 4° C. for 10 min. The supernatant was removed, and the pellets were separately resuspended with either 1 ml of ice-cold distilled water or CB. The cells were homogenized by sonication (Sonic Dismembrator; Fisher), and cell disruption was assessed by microscopy. To examine the heat sensitivity of chemotaxis elicitors, an aliquot of each homogenate was heated to 80° C. for 15 min prior to the assay. All homogenates were then stored at −20° C. When required, the homogenates were thawed, held on ice, and used in the capillary assay as described.

[3] = test system: Silicibacter sp. strain TM1040; experiment: Quantitative capillary chemotaxis assay; format: cell-based; conditions: for response factor (mean): pure compounds, FIG. 12, capillaries filled with 2 μM or 200 μM attractant; for mean concentration of bacteria in methionine-filled capillaries: starved cells
Description: The cells were pelleted by centrifugation at 4,000×g in a tabletop centrifuge (Centra-CL2; International Equipment Company), the supernatant was discarded, and the pellet was resuspended in chemotaxis buffer (CB) (15 g of ASW, 6 g of Tris-HCl per liter [pH 7.6]) to the same OD. Five hundred microliters of washed cells was placed in one of the wells of the Palleroni chamber, followed by a 1-μl capillary (Microcaps; Drummond) filled with a putative attractant diluted in CB. This process was repeated for each of the four wells in the chamber. A capillary filled with CB only was included in each experiment as a negative control. Depending on the experiment, capillaries remained in the chambers for 0.5 to 2 h, after which time they were removed, and the contents of each capillary were serially diluted in CB. Final dilutions were then spread on HIASW agar plates and incubated for 16 h at 30° C. The concentration of TM1040 in each capillary was derived by counting the CFU on each plate and multiplying by the appropriate dilution factor. […]

[4] = test system: Silicibacter sp. strain TM1040; experiment: Chemotaxis plate screening assay (change in motile colony morphology); format: cell-based; conditions: for Response: change in motile colony morphology of TM1040 in response to attractants, compared to the control / chemotactic response of TM1040 in plate assay: BM glycerol motility agar; for Change in morphology with carbon source Alanine / Change in morphology with carbon source Glucose / Change in morphology with carbon source Glycerol / Change in morphology with carbon source Succinate: BM motility agar; for Change in morphology with carbon source Alanine: alanine as single carbon source; for Change in morphology with carbon source Glucose: glucose as single carbon source; for Change in morphology with carbon source Glycerol: glycerol as single carbon source; for Change in morphology with carbon source Succinate: succinate as single carbon source; for Change in morphology with carbon source Alanine: key: −: minus indicates no change compared to distilled water or no attractant controls; +: either one or two pluses indicates moderate to strong alteration in motile colony phenotype (respectively); ++: either one or two pluses indicates moderate to strong alteration in motile colony phenotype (respectively); for Change in morphology with carbon source Glucose: key: −: minus indicates no change compared to distilled water or no attractant controls; +: either one or two pluses indicates moderate to strong alteration in motile colony phenotype (respectively); ++: either one or two pluses indicates moderate to strong alteration in motile colony phenotype (respectively); for Change in morphology with carbon source Glycerol: key: −: minus indicates no change compared to distilled water or no attractant controls; +: either one or two pluses indicates moderate to strong alteration in motile colony phenotype (respectively); ++: either one or two pluses indicates moderate to strong alteration in motile colony phenotype (respectively); for Response: change in motile colony morphology of TM1040 in response to attractants, compared to the control: key: −: minus indicates no change compared to distilled water or no attractant controls; +: either one or two pluses indicates moderate to strong alteration in motile colony phenotype (respectively); ++: either one or two pluses indicates moderate to strong alteration in motile colony phenotype (respectively)
Experimental: Following 36 h of incubation, a putative attractant was placed approximately 5 cm from the site of inoculation (or 2.5 cm in front of the periphery of motile cells). Possible chemoattractant compounds were administered as either a sterile solid or concentrated stock solutions. The cells were further incubated for 16 h to allow for additional outward movement, at which time measurement of diameter, shape, and chemotaxis rings internal to the motile colony were made.
[…] Bacteria inoculated into the center of the agar consume nutrients and create a concentration gradient that increases outward from the point of inoculation. The bacteria sense the increasing gradient and swim outwards, seeking higher concentrations of nutrients, which is manifested as a symmetrical “motile” colony. If an attractant is placed at a short distance in front of the advancing motile colony, it forms a second gradient moving towards the oncoming cells that will affect the symmetry of the colony by reducing the net outward swimming of the bacteria.

[5] = heated (80° C. for 15 min) P. piscicida homogenate
[6] = untreated P. piscicida homogenate

Structure (SMILES) | % Reduction in CFU per capillary compared to the control [2, 5] | No. of bacteria per capillary (CFU · 10^4), attractant added to external buffer [2, 5] | % Reduction in CFU per capillary compared to the control [2, 6] | No. of bacteria per capillary (CFU · 10^4), attractant added to external buffer [2, 6] | mean number of bacteria in the untreated capillaries [2] | response factor (mean) [3] | Response: change in motile colony morphology of TM1040 in response to attractants, compared to the control [4] | chemotactic response of TM1040 in plate assay [4] | Change in morphology with carbon source Alanine [4] | Change in morphology with carbon source Glucose [4] | Change in morphology with carbon source Glycerol [4] | Change in morphology with carbon source Succinate [4] | other results
C[S+](C)CCC(=O)[O-] [DMSP, Dimethylsulfoniopropionate] | 11% and 11.68% | 3.10 (±0.16) CFU · 10^4 | 54% and 54.01% | 3.33 (±0.15) CFU · 10^4 | 3.33×10^4 CFU per ml | 8.2 | ++ | marked deformation in the periphery of the motile colony | + | − | ++ | + | loss of DMSP ([1]; 200 μM DMSP in CB heated to either 80 or 100° C. for 15 min): < 2%; concentration of DMSP in P. piscicida homogenates ([1]; after the homogenate was heated, level of detectability): < 1 µM; mean concentration of DMSP in P. piscicida homogenates ([1]; untreated homogenate): 8.21 ± 1.2 µM
CSCC[C@H](N)C(=O)O [methionine] | 48% | 1.80 (±0.11) CFU · 10^4 | 58% | 3.03 (±0.32) CFU · 10^4 | 3.03×10^4 CFU per ml | 9.8 | ++ | significant effects on the periphery of the motile colony |  |  |  |  | % Reduction in CFU per capillary compared to the control ([2]; heated (80° C. for 15 min) P. piscicida homogenate, listed as Methionine): 48.72%; % Reduction in CFU per capillary compared to the control ([2]; untreated P. piscicida homogenate, listed as Methionine): 58.15%; mean concentration of bacteria in methionine-filled capillaries ([3]; 0.5 h, 200 μM): 5.3×10^7 CFU per ml; mean concentration of bacteria in methionine-filled capillaries ([3]; 1 h, 200 μM): 1.8×10^8 CFU per ml; mean concentration of bacteria in methionine-filled capillaries ([3]; 1.5 h, 200 μM): 2.4×10^8 CFU per ml; mean concentration of bacteria in methionine-filled capillaries ([3]; 2 h, 200 μM): 2.4×10^8 CFU per ml; maximum mean concentration of bacteria in methionine-filled capillaries ([3]; without starvation, peak at 1.5 h, 200 μM): 2.1×10^8 CFU per ml
CC(C)[C@H](N)C(=O)O [valine] | 74% | 0.91 (±0.24) CFU · 10^4 | 78% | 1.53 (±0.15) CFU · 10^4 | 1.53×10^4 CFU per ml | 6.1 | ++ | significant effects on the periphery of the motile colony | + | − | ++ | + | % Reduction in CFU per capillary compared to the control ([2]; heated (80° C. for 15 min) P. piscicida homogenate, listed as Valine): 74.07%; % Reduction in CFU per capillary compared to the control ([2]; untreated P. piscicida homogenate, listed as Valine): 78.87%

— patent publication US20090142429A1, “SILICIBACTER SP. STRAIN USEFUL FOR GENETIC TRANSFORMATION OF MARINE ALGAE AND PRODUCTION OF ANTIBIOTIC AGENTS” (UNIVERSITY OF MARYLAND BIOTECHNOLOGY INSTITUTE, priority 2005, published 2009)
